Consider 1 compound from publication PMC9011347, “Small-Molecule Inhibitors Targeting Lipolysis in Human Adipocytes” (Journal of the American Chemical Society, 2022).

This series can be described thus: Stability of NG-497 exposed to HepG2 cells. To be noted: human, cells treated 1 h with 40 μM NG-497, inhibitor removed, DMEM 10% FCS, read-out: half-life (T1/2) when exposed to HepG2 cells. The class given is in vitro ADME. The procedure:
Figure 2 Development and characterization of the human ATGL inhibitor NG-497. (a) Structure and IC50 values of human ATGL inhibitors. (b) Dose-dependent inhibition of human ATGL by respective inhibitors. (c) ATGL activity was determined at the indicated substrate concentrations in the absence and presence of NG-497 (0.5 μM). Ki was determined by nonlinear regression analysis using GraphPad Prism. Lineweaver–Burk analysis of ATGL inhibition is shown in the inset. (d) Toxicity of NG-497 in HepG2 cells was determined after 24 h incubation at indicated concentrations. Cisplatin and DMSO were used as positive and negative controls, respectively. Cytotoxicity was determined using the Roche LDH Kit and calculated as relative LDH release compared to fully lysed cells. (e) Stability of NG-497 was analyzed via ultrahigh-performance liquid chromatography–mass spectrometry (UHPLC-MS) after incubation in human serum for 0 or 3 h at 37 °C. Atglistatin and a chemically related unstable compound were used as controls. […] NG-497 concentrations/well were determined at the indicated time points using UHPLC-MS. […] Statistical significance was determined via t test (*p < 0.05; **p < 0.01; ***p < 0.001) or ANOVA followed by Bonferroni post hoc test (^###p < 0.001). […] The detected 297 lipid species of both groups were analyzed with supervised multivariate analysis OPLS-DA and are shown as a loading plot. […]

On to `CCOc1ccc(-c2cc(OC)cc(C(=O)OC(C)C)n2)cc1` [NG-497], for which the half-life at 40 µM is 46 min.
